Patent publication US20070128217A1 (priority 2003, published 2007)

Assays:
[1] = test system: control sera (pooled serum of ten healthy LUMC hospital workers; commercial negative donor pooled serum from the Dutch bloodbank); assay type: binding, human; parameters: Binding of Control serum LUMC to linear peptides / Binding of Control serum Blood-bank to linear peptides / Binding of Control serum LUMC to looped peptides / Binding of Control Serum Blood-Bank to Looped peptides / Binding of Control serum LUMC to linear peptides of the protein M of SARS-CoV Urbani / Binding of Control serum Blood-bank to linear peptides of the protein M of SARS-CoV Urbani / Binding of Control serum LUMC to looped peptides of the protein M of SARS-CoV Urbani / Binding of Control Serum Blood-Bank to Looped peptides of the protein M of SARS-CoV Urbani: unit not given here
[2] = test system: rabbit serum obtained by immunizing a rabbit with the SARS-CoV strain Frankfurt 1; assay type: binding; parameters: Binding of a rabbit serum to linear peptides / Binding of a rabbit serum to looped peptides / Rabbit serum linear peptides / Rabbit serum looped peptides / Binding of a rabbit serum to linear peptides of protein N of SARS-CoV Urbani (Rabbit serum linear peptides) / Binding of a rabbit serum to looped/cyclic peptides of protein N of SARS-CoV Urbani (Rabbit serum looped peptides): unit not given here
[3] = test system: antibodies in sera from SARS patients (sera 1a, 1b, 2, 6, 37, 62, London, SARS-yellow, SARS-green); assay type: binding, human; parameters: Binding of serum 6 to linear peptides of protein X1 of SARS-CoV Urbani / Binding of serum 37 to linear peptides of protein X1 of SARS-CoV Urbani / Binding of serum 6 to looped/cyclic peptide (PEPSCAN-ELISA) / Binding of serum 37 to looped/cyclic peptide (PEPSCAN-ELISA) / Binding of serum 37 to looped/cyclic peptides of protein X1 of SARS-CoV Urbani / Binding of serum 6 to linear peptides of protein X2 / Binding of serum 37 to linear peptides of protein X2 / Binding of serum 37 to looped/cyclic peptides of protein X2 of SARS-CoV Urbani / Binding of serum 6 to linear peptides of protein M of SARS-CoV Urbani / Binding of serum 37 to linear peptides of protein M of SARS-CoV Urbani / Binding of serum 6 to looped/cyclic peptides of protein M of SARS-CoV Urbani / Binding of serum 37 to looped/cyclic peptides of protein M of SARS-CoV Urbani / Binding of serum 6 to linear peptides of protein X3 of SARS-CoV Urbani / Binding of serum 37 to linear peptides of protein X3 of SARS-CoV Urbani / Binding of serum 37 to looped/cyclic peptides of protein X3 of SARS-CoV Urbani / Binding of serum 6 to linear peptides of protein X4 of SARS-CoV Urbani / Binding of serum 37 to linear peptides of protein X4 of SARS-CoV Urbani / Binding of serum 37 to looped/cyclic peptides of protein X4 of SARS-CoV Urbani / Binding of serum 6 to linear peptides of protein X5 of SARS-CoV Urbani / Binding of serum 37 to linear peptides of protein X5 of SARS-CoV Urbani / Binding of serum 37 to looped/cyclic peptides of protein X5 of SARS-CoV Urbani / Binding of serum 6 to linear peptides of protein N of SARS-CoV Urbani / Binding of serum 37 to linear peptides of protein N of SARS-CoV Urbani / Binding of serum 6 to linear peptide (PEPSCAN-ELISA) / Binding of serum 1a to looped/cyclic peptides of protein N of SARS-CoV Urbani / Binding of serum 1b to looped/cyclic peptides of protein N of SARS-CoV Urbani / Binding of serum 2 to looped/cyclic peptides of protein N of SARS-CoV Urbani / Binding of serum 6 to looped/cyclic peptides of protein N of SARS-CoV Urbani / Binding of serum 37 to looped/cyclic peptides of protein N of SARS-CoV Urbani / Binding of serum 62 to looped/cyclic peptides of protein N of SARS-CoV Urbani / Binding of serum London to looped/cyclic peptides of protein N of SARS-CoV Urbani / Binding of serum SARS-green to looped/cyclic peptides of protein N of SARS-CoV Urbani: unit not given here

For LFARTRSMWSFNPET, the “Binding of Control Serum Blood-Bank to Looped peptides of the protein M of SARS-CoV Urbani” value [1] was 0.6, the “Binding of Control serum Blood-bank to linear peptides of the protein M of SARS-CoV Urbani” value [1] was 0.7 and the “Binding of Control serum LUMC to linear peptides of the protein M of SARS-CoV Urbani” value [1] was 0.8. The “Binding of Control serum LUMC to looped peptides of the protein M of SARS-CoV Urbani” value [1] was 0.6, the “Rabbit serum linear peptides” value [2] was 0.1 and the “Rabbit serum looped peptides” value [2] was 0.3. For the same sequence, the “Binding of serum 1a to linear peptides of protein M of SARS-CoV Urbani” value [3] was 0.8, the “Binding of serum 1a to looped/cyclic peptides of protein M of SARS-CoV Urbani” value [3] was 0.7 and the “Binding of serum 1b to linear peptides of protein M of SARS-CoV Urbani” value [3] was 0.7. The “Binding of serum 1b to looped/cyclic peptides of protein M of SARS-CoV Urbani” value [3] was 0.5, the “Binding of serum 2 to linear peptides of protein M of SARS-CoV Urbani” value [3] was 0.5 and the “Binding of serum 2 to looped/cyclic peptides of protein M of SARS-CoV Urbani” value [3] was 0.6. For the same sequence, the “Binding of serum 6 to linear peptides of protein M of SARS-CoV Urbani” value [3] was 0.6, the “Binding of serum 6 to looped/cyclic peptides of protein M of SARS-CoV Urbani” value [3] was 0.5 and the “Binding of serum 37 to linear peptides of protein M of SARS-CoV Urbani” value [3] was 0.5. For the same sequence, the “Binding of serum 37 to looped/cyclic peptides of protein M of SARS-CoV Urbani” value [3] was 0.7, the “Binding of serum 62 to linear peptides of protein M of SARS-CoV Urbani” value [3] was 0.5 and the “Binding of serum 62 to looped/cyclic peptides of protein M of SARS-CoV Urbani” value [3] was 0.6. For the same sequence, the “Binding of serum London to linear peptides of protein M of SARS-CoV Urbani” value [3] was 0.4, the “Binding of serum London to looped/cyclic peptides of protein M of SARS-CoV Urbani” value [3] was 0.2 and the “Binding of serum SARS-green to linear peptides of protein M of SARS-CoV Urbani” value [3] was 0.5. The “Binding of serum SARS-green to looped/cyclic peptides of protein M of SARS-CoV Urbani” value [3] was 0.3, the “Binding of serum SARS-yellow to linear peptides of protein M of SARS-CoV Urbani” value [3] was 0.2 and the “Binding of serum SARS-yellow to looped/cyclic peptides of protein M of SARS-CoV Urbani” value [3] was 0.7.

LFLAWIMLLQFAYSN was tested, and the “Binding of Control Serum Blood-Bank to Looped peptides of the protein M of SARS-CoV Urbani” value [1] was 0.7, the “Binding of Control serum Blood-bank to linear peptides of the protein M of SARS-CoV Urbani” value [1] was 0.5 and the “Binding of Control serum LUMC to linear peptides of the protein M of SARS-CoV Urbani” value [1] was 0.2. The “Binding of Control serum LUMC to looped peptides of the protein M of SARS-CoV Urbani” value [1] was 0.6, the “Rabbit serum linear peptides” value [2] was 0.7 and the “Rabbit serum looped peptides” value [2] was 0.3. The “Binding of serum 1a to linear peptides of protein M of SARS-CoV Urbani” value [3] was 0.7, the “Binding of serum 1a to looped/cyclic peptides of protein M of SARS-CoV Urbani” value [3] was 0.8 and the “Binding of serum 1b to linear peptides of protein M of SARS-CoV Urbani” value [3] was 0.5. The “Binding of serum 1b to looped/cyclic peptides of protein M of SARS-CoV Urbani” value [3] was 0.6, the “Binding of serum 2 to linear peptides of protein M of SARS-CoV Urbani” value [3] was 0.3 and the “Binding of serum 2 to looped/cyclic peptides of protein M of SARS-CoV Urbani” value [3] was 0.6. The “Binding of serum 6 to linear peptides of protein M of SARS-CoV Urbani” value [3] was 0.3, the “Binding of serum 6 to looped/cyclic peptides of protein M of SARS-CoV Urbani” value [3] was 0.7 and the “Binding of serum 37 to linear peptides of protein M of SARS-CoV Urbani” value [3] was 0.6. For the same sequence, the “Binding of serum 37 to looped/cyclic peptides of protein M of SARS-CoV Urbani” value [3] was 0.7, the “Binding of serum 62 to linear peptides of protein M of SARS-CoV Urbani” value [3] was 0.7 and the “Binding of serum 62 to looped/cyclic peptides of protein M of SARS-CoV Urbani” value [3] was 0.7. For the same sequence, the “Binding of serum London to linear peptides of protein M of SARS-CoV Urbani” value [3] was 0.2, the “Binding of serum London to looped/cyclic peptides of protein M of SARS-CoV Urbani” value [3] was 0.3 and the “Binding of serum SARS-green to linear peptides of protein M of SARS-CoV Urbani” value [3] was 0.2. For the same sequence, the “Binding of serum SARS-green to looped/cyclic peptides of protein M of SARS-CoV Urbani” value [3] was 0.3, the “Binding of serum SARS-yellow to linear peptides of protein M of SARS-CoV Urbani” value [3] was 0.0 and the “Binding of serum SARS-yellow to looped/cyclic peptides of protein M of SARS-CoV Urbani” value [3] was 0.6.
